Positions of bridges follow the written chain, without caps; N, C: chain ends. Residues, ends and D or L forms follow the SMILES beside them. No end group written: not given here.
Tests used:
hGalR1 = biological target: T1, hGalR1 (Homo sapiens, UniProt P47211); assay: SRE-Luc receptor activation assay, hGalR1; type: cell-based; conditions: for hGalR1 Emax: Relative to hGAL Emax; for activity on GalR1, in words: full-dose SRE-Luc
T1 sequence (P47211 1-349): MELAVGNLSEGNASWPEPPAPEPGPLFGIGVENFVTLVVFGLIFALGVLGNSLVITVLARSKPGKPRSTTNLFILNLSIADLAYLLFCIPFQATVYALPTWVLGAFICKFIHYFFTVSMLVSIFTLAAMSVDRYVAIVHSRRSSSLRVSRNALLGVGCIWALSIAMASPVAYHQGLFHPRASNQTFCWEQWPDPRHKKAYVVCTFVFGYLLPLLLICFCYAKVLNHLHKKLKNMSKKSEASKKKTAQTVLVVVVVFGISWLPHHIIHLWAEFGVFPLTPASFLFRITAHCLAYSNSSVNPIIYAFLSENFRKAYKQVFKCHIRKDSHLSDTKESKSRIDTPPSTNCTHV

hGalR2 = biological target: T2, hGalR2 (Homo sapiens, UniProt O43603); assay: SRE-Luc receptor activation assay, hGalR2; type: cell-based; conditions: for hGalR2 Emax: Relative to hSPX Emax; for activity on GalR2, in words: full-dose SRE-Luc; for effect of cysteine mutation on receptor activation of GalR2: single dose (1 μM, 6 hours), compared with wild type hSPX
T2 construct: host or cells: HEK293
T2 sequence (O43603 1-387): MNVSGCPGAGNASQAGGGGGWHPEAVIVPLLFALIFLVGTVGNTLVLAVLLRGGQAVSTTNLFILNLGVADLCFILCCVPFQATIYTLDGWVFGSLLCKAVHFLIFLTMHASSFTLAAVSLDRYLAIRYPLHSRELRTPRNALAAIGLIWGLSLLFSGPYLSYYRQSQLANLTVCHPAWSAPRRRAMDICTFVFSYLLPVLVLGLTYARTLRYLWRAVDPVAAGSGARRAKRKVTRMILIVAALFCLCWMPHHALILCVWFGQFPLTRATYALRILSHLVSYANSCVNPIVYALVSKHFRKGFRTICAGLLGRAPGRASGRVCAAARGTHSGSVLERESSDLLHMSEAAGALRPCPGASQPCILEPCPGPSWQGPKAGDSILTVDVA

hGalR3 = biological target: T3, hGalR3 (Homo sapiens, UniProt O60755); assay: SRE-Luc receptor activation assay, hGalR3; type: cell-based; conditions: for hGalR3 Emax: Relative to hSPX Emax; for activity on GalR3, in words: full-dose SRE-Luc; for effect of cysteine mutation on receptor activation of GalR3: single dose (1 μM, 6 hours), compared with wild type hSPX
T3 construct: host or cells: HEK293
T3 sequence (O60755 1-368): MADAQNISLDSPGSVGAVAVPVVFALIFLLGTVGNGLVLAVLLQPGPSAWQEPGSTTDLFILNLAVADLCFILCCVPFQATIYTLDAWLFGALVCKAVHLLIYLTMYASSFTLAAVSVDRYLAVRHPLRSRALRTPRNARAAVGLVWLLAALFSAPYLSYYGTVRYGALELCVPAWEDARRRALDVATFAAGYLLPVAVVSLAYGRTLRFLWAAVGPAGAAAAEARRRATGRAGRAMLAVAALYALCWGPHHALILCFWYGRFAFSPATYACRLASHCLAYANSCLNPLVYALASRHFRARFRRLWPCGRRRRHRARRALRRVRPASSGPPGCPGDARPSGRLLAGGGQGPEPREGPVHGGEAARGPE

[1] = In vitro serum stability assay (RP-HPLC); type: in vitro ADME, rat; conditions: rat serum in RPMI 1640, 37° C., 100 μg/mL; read-out: serum half-life (t1/2)
Experimental: The serum stability of CSAs was tested using an in vitro assay followed by reverse-phase high-performance liquid chromatography (RP-HPLC) analysis (FIGS. 33-38).
750 μL RPMI medium 1640 (Thermo Fisher Scientific) was mixed with […] rat serum, and incubated at 37° C. for 15 min before adding peptide. The peptide dissolved in water was added into the reaction buffer to make a final concentration of 100 μg/mL. At each time point (5, 15, 30, 60, 120, 240, and 480 min), 100 μL reaction solution were taken, and mixed with 200 μL 6% trichloroacetic acid (TCA, Sigma-Aldrich). The resulting cloudy solution was cooled at 4° C. for 15 min, and centrifuged for 10 mins at 13,000 rpm. The supernatant was then analyzed by RP-HPLC. The extent of intact peptide was calculated based on the peak area and was normalized using a control sample.

[2] = HEK293 cells transfected with hGalR1, Gqi, SRE-Luc, 6 h treatment, full-dose

| Compound | hGalR1 EC50 (hGalR1; [2]) | hGalR1 Emax (hGalR1) | hGalR2 Emax (hGalR2) | activity on GalR1, in words (hGalR1) | EC50 (hGalR2) | hGalR3 EC50 (hGalR3; HEK293 cells transfected with hGalR3, Gqi, SRE-Luc, 6 h treatment, full-dose) | hGalR3 Emax (hGalR3) | activity on GalR3, in words (hGalR3) | half-life at 100 μg/mL [1] | EC50 (hGalR1; [2]) | activity on GalR2, in words (hGalR2) | EC50 (hGalR3) | effect of cysteine mutation on receptor activation of GalR2 (hGalR2) | effect of cysteine mutation on receptor activation of GalR3 (hGalR3) |
| --- | --- | --- | --- | --- | --- | --- | --- | --- | --- | --- | --- | --- | --- | --- |
| CSCC[C@@H]1NC(=O)[C@H](C)NC(=O)[C@H](CCC(N)=O)NC(=O)[C@@H](NC(=O)[C@@H](NC(=O)[C@H](Cc2c[nH]c3ccccc23)NC(=O)[C@@H](N)CC(N)=O)[C@@H](C)O)CSSC[C@@H](C(=O)N[C@@H](CCC(N)=O)C(N)=O)NC(=O)CNC(=O)[C@H](CCCCN)NC(=O)[C@H](CC(C)C)NC(=O)[C@H](Cc2ccc(O)cc2)NC(=O)[C@H](CC(C)C)NC1=O [LH102] (H-NWTCQAMLYLKGCQ-NH2; disulfide 4-13; N-terminus assumed) | N.M. | N.M. | 1.08 | – | – | – | – | – | – | – | – | – | – | – |
| CC(=O)N[C@H]1CSSC[C@@H](C(=O)N[C@@H](Cc2c[nH]cn2)C(=O)N[C@@H](C)C(=O)N[C@H](C(N)=O)C(C)C)NC(=O)CNC(=O)[C@H](CC(C)C)NC(=O)[C@H](CC(C)C)NC(=O)[C@H](Cc2ccc(O)cc2)NC(=O)CNC(=O)[C@H](C)NC(=O)[C@H](CO)NC(=O)[C@H](CC(N)=O)NC(=O)[C@H](CC(C)C)NC(=O)[C@H]([C@@H](C)O)NC(=O)[C@H](Cc2c[nH]c3ccccc23)NC1=O [LH201 (Ac)] (Ac-CWTLNSAGYLLGCHAV-NH2; disulfide 1-13) | N.M. | 0.22 | 1.16 | No activity | 480 nM | N.M. | 0.20 | No activity | 51.9 min | – | – | – | – | – |
| CC(C)C[C@@H]1NC(=O)[C@H](CC(C)C)NC(=O)[C@H](Cc2ccc(O)cc2)NC(=O)CNC(=O)[C@H](C)NC(=O)[C@H](CO)NC(=O)[C@H](CC(N)=O)NC(=O)[C@H](CC(C)C)NC(=O)[C@H]([C@@H](C)O)NC(=O)[C@H](Cc2c[nH]c3ccccc23)NC(=O)[C@@H](N)CSSC[C@@H](C(=O)N[C@@H](Cc2c[nH]cn2)C(=O)N[C@@H](C)C(=O)N[C@H](C(N)=O)C(C)C)NC(=O)CNC1=O [LH201] (H-CWTLNSAGYLLGCHAV-NH2; disulfide 1-13) | – | 0.35 | 1.00 | lost all activity on GalR1 | 120 nM | – | 0.55 | only able to activate GalR3 at high doses | 169 min | > 10000 nM | kept full activity on GalR2 | > 10000 nM | – | – |
| CC(C)C[C@H](NC(=O)[C@H](CC(C)C)NC(=O)[C@H](Cc1ccc(O)cc1)NC(=O)CNC(=O)[C@H](C)NC(=O)[C@H](CO)NC(=O)[C@H](CC(N)=O)NC(=O)[C@H](CC(C)C)NC(=O)[C@@H](NC(=O)[C@H](Cc1c[nH]c2ccccc12)NC(=O)CN)[C@@H](C)O)C(=O)NCC(=O)N1CCC[C@H]1C(=O)N[C@@H](Cc1c[nH]cn1)C(=O)N[C@@H](C)C(=O)N[C@H](C(N)=O)C(C)C [hGAL (1-16), reference compound] | – | – | 1.02 | – | – | – | 0.45 | – | 14.1 min | – | – | > 10000 nM | – | – |
| CC(C)C[C@H](NC(=O)CNC(=O)[C@H](CC(N)=O)NC(=O)[C@H](CCCCN)NC(=O)[C@H](CC(=O)O)NC(=O)[C@H](CO)NC(=O)[C@H](Cc1ccccc1)NC(=O)[C@H](CO)NC(=O)[C@H](CCCNC(=N)N)NC(=O)[C@H](Cc1c[nH]cn1)NC(=O)[C@H](CC(N)=O)NC(=O)CNC(=O)[C@@H](NC(=O)[C@H](C)NC(=O)[C@H](Cc1c[nH]cn1)NC(=O)[C@@H]1CCCN1C(=O)CNC(=O)[C@H](CC(C)C)NC(=O)[C@H](CC(C)C)NC(=O)[C@H](Cc1ccc(O)cc1)NC(=O)CNC(=O)[C@H](C)NC(=O)[C@H](CO)NC(=O)[C@H](CC(N)=O)NC(=O)[C@H](CC(C)C)NC(=O)[C@@H](NC(=O)[C@H](Cc1c[nH]c2ccccc12)NC(=O)CN)[C@@H](C)O)C(C)C)C(=O)N[C@H](C(=O)N[C@@H](CO)C(N)=O)[C@@H](C)O [hGAL, reference compound] | – | – | 0.94 | – | – | – | 0.68 | – | – | – | – | – | – | – |
| CSCC[C@H](NC(=O)[C@H](C)NC(=O)[C@H](CCC(N)=O)NC(=O)[C@@H]1CCCN1C(=O)[C@@H](NC(=O)[C@H](Cc1c[nH]c2ccccc12)NC(=O)[C@@H](N)CS)[C@@H](C)O)C(=O)N[C@@H](CC(C)C)C(=O)N[C@@H](Cc1ccc(O)cc1)C(=O)N[C@@H](CC(C)C)C(=O)N[C@@H](CCCCN)C(=O)NCC(=O)N[C@@H](C)C(=O)N[C@@H](CCC(N)=O)C(N)=O [hSPX (C1)] (H-CWTPQAMLYLKGAQ-NH2; N-terminus assumed) | N.M. | N.M. | 1.05 | – | – | – | 1.00 | little effect on the potency | – | – | little effect on the potency | – | minimum effects | minimum effects |
| CSCC[C@H](NC(=O)[C@H](C)NC(=O)[C@H](CCC(N)=O)NC(=O)[C@H](CS)NC(=O)[C@@H](NC(=O)[C@H](Cc1c[nH]c2ccccc12)NC(=O)[C@@H](N)CC(N)=O)[C@@H](C)O)C(=O)N[C@@H](CC(C)C)C(=O)N[C@@H](Cc1ccc(O)cc1)C(=O)N[C@@H](CC(C)C)C(=O)N[C@@H](CCCCN)C(=O)NCC(=O)N[C@@H](C)C(=O)N[C@@H](CCC(N)=O)C(N)=O [hSPX (C4)] (H-NWTCQAMLYLKGAQ-NH2; N-terminus assumed) | N.M. | N.M. | 0.98 | – | – | – | 0.91 | little effect on the potency | – | – | little effect on the potency | – | minimum effects | minimum effects |
| CSCC[C@H](NC(=O)[C@H](C)NC(=O)[C@H](CCC(N)=O)NC(=O)[C@@H]1CCCN1C(=O)[C@@H](NC(=O)[C@H](Cc1c[nH]c2ccccc12)NC(=O)[C@@H](N)CC(N)=O)[C@@H](C)O)C(=O)N[C@@H](CC(C)C)C(=O)N[C@@H](Cc1ccc(O)cc1)C(=O)N[C@@H](CC(C)C)C(=O)N[C@@H](CCCCN)C(=O)NCC(=O)N[C@@H](CS)C(=O)N[C@@H](CCC(N)=O)C(N)=O [hSPX (C13)] (H-NWTPQAMLYLKGCQ-NH2; N-terminus assumed) | N.M. | N.M. | 0.87 | – | – | – | 0.88 | little effect on the potency | – | – | little effect on the potency | – | minimum effects | minimum effects |
| C10: hSPX mutant with single mutation to cysteine at position 10 (NWTPQAMLYCKGAQ-NH2) | – | – | – | – | – | – | – | – | – | – | – | – | severely impaired bioactivity | severely impaired bioactivity |
| C12: hSPX mutant with single mutation to cysteine at position 12 (NWTPQAMLYLKCAQ-NH2) | – | – | – | – | – | – | – | – | – | – | – | – | severely impaired bioactivity | severely impaired bioactivity |
| C14: hSPX mutant with single mutation to cysteine at position 14 (NWTPQAMLYLKGAC-NH2) | – | – | – | – | – | – | – | – | – | – | – | – | severely impaired bioactivity | severely impaired bioactivity |

— patent publication US10376555B2, “Identification of cyclic peptide agonists of galanin receptor 2 and 3 guided by spexin solution structure” (Hong Kong Baptist University, priority 2017, dated 2019)
